Measured values as given in publication PMC8301768, “Cloning and Characterization of Aedes aegypti Trypsin Modulating Oostatic Factor (TMOF) Gut Receptor” (Biomolecules, 2021).

Assays:
AeaABC-TMOF receptor [1] = test: Transport of AeaTMOF-FITC into E. coli cells expressing AeaABC-TMOF receptor in the presence of inhibitors; assay type: cell-based, Aedes aegypti; conditions: NaAzide 100 μM, NaArsenate 20 mM, AeaTMOF-FITC 0.4 μM, 2 h, 37 °C; for effect on transport of AeaTMOF-FITC into E. coli cells (in words): Valinomycin 7 μM, DNP 27 μM; for inhibition of transport of AeaTMOF-FITC into E. coli cells: 5 × 10^5 cells, M9 medium, versus control cells, mean of 3
Method: To find out whether the transport into E. coli cells expressing the TMOF receptor is proton driven or depends on ATP hydrolysis, E. coli cells (5 × 10^5 cell) expressing the TMOF receptor were incubated in M9 medium (100 μL) with valinomysin (7 μM), DNP (27 μM), NaAzide (100 μM) and NaArsenate (20 mM) in the presence of AeaTMOF-FITC (0.4 μM) for 2 h at 37 °C. Control was run without the inhibitors. After incubation, the cells were washed 3× by centrifugation and the fluorescence was read after subtraction the initial background fluorescence of the medium and inhibitors without the AeaTMOF-FITC. The incubations were repeated 3 independent times and the results are expressed as means of 3 determinations ±SEM.

AeaABC-TMOF receptor [2] = test: Binding of TMOF-FITC to AeaABC-TMOF receptor expressed in E. coli SbmA− cells; design: species or system Aedes aegypti; conditions: for Kd: TMOF-FITC 0–0.4 μM, 8 × 10^8 E. coli SbmA− cells expressing receptor, M9 medium pH 7.2, 37 °C, fluorescence, corrected for nonspecific binding (13%), nonlinear regression, n = 5, ± SEM; for Bmax: as for KD, ± SEM; for affinity constant Kassoc: calculated from the binding kinetics
Method: Mid-log phase bacteria harboring TMOF-receptor were harvested, diluted and 0.5 μL (8 × 10^8 cells) were incubated in M9 medium (100 μL) pH 7.2 at 37 °C for 2 h in a shaker incubator in Eppendorf tubes with different concentrations of TMOF-FITC (0–0.4 μM) (specific activity = 25,396 fluorescence units/pmol) in the presence of TMOF (1 μmol) to reduce nonspecific binding of TMOF-FITC to the bacterial surface. After incubation, the cells were centrifuged at 14,000 rpm for 5 min at 4 °C, resuspended in PBS pH 7.2 (100 μL), vortexed, centrifuged, and the washing was repeated three times. After the last wash, the cells OD600nm and fluorescence were read in GloMax multidetector system using a blue filter (excitation at 490 nm and emission at 510–570 nm). The amount of TMOF-FITC that bound the TMOF-receptor was determined from a linear calibration curve after plotting different concentrations of TMOF-FITC against fluorescence units. […] After HPLC purification, the TFA ions were exchanged with phosphate ions. […] The results are expressed as pmol/OD600 so the binding to the receptor is per equal number of E. coli cells. The kinetics of TMOF-FITC binding to its receptor was followed at different concentrations of TMOF-FITC using 5 repetitions per concentration, the data was then fitted by nonlinear regression using GraphPad Prism and the KD, Bmax and the affinity constant Kassoc determined. The binding experiments were repeated 3 independent times.
Statistical analyses were determined using GraphPad Prism using two tailed Student’s t test and nonlinear regression. Results were considered significant when p < 0.05. […] Each experimental point is a mean of 3–5 determinations ± SEM.

E. coli SbmA− cells [3] = test: Nonspecific binding of TMOF-FITC to E. coli SbmA− cells with empty pTAC-MAT-2 plasmid
Method: (§1) Mid-log phase bacteria harboring TMOF-receptor were harvested, diluted and 0.5 μL (8 × 10^8 cells) were incubated in M9 medium (100 μL) pH 7.2 at 37 °C for 2 h in a shaker incubator in Eppendorf tubes with different concentrations of TMOF-FITC (0–0.4 μM) (specific activity = 25,396 fluorescence units/pmol) in the presence of TMOF (1 μmol) to reduce nonspecific binding of TMOF-FITC to the bacterial surface. After incubation, the cells were centrifuged at 14,000 rpm for 5 min at 4 °C, resuspended in PBS pH 7.2 (100 μL), vortexed, centrifuged, and the washing was repeated three times. After the last wash, the cells OD600nm and fluorescence were read in GloMax multidetector system using a blue filter (excitation at 490 nm and emission at 510–570 nm). The amount of TMOF-FITC that bound the TMOF-receptor was determined from a linear calibration curve after plotting different concentrations of TMOF-FITC against fluorescence units. […] The results are expressed as pmol/OD600 so the binding to the receptor is per equal number of E. coli cells. The kinetics of TMOF-FITC binding to its receptor was followed at different concentrations of TMOF-FITC using 5 repetitions per concentration, the data was then fitted by nonlinear regression using GraphPad Prism and the KD, Bmax and the affinity constant Kassoc determined. […]

E. coli SbmA+ cells = test: Binding of TMOF-FITC to E. coli SbmA+ cells with empty pTAC-MAT2 plasmid; conditions: 8 × 10^8 cells, 2 h, 37 °C, M9 medium, mean of three
Method: as §1

AeaABC-TMOF receptor [4] = test: Fluorescence microscopy of TMOF-FITC import into E. coli cells expressing AeaABC-TMOF receptor; assay type: cell-based, Aedes aegypti; conditions: for fluorescence of cells / import (in words): overnight incubation, 10^8 cells expressing receptor, 37 °C, washed 3×
Method: Binding of TMOF-FITC to the AeaABC-TMOF receptor and its transport into the recombinant E. coli cells were observed using Leica DM6B microscope with Leica DFC 7000 T camera and 63× magnification using oil immersion lens. […] After incubation, the cells were washed 3× in PBS pH 7.2 (as in Section 2.6) and aliquots (10 μL) were spread on a glass slide then covered with a cover slip and a drop of oil was applied to the top of the cover slip, and the cells observed by fluorescence microscopy. Cells without a TMOF-receptor containing an empty plasmid were used as control.

E. coli SbmA− cells [5] = test: Fluorescence microscopy of E. coli cells with empty pTAC-MAT-2 plasmid incubated with TMOF-FITC; assay type: cell-based; conditions: overnight incubation, 10^8 cells with empty plasmid, 37 °C, washed 3×
Method: Binding of TMOF-FITC to the AeaABC-TMOF receptor and its transport into the recombinant E. coli cells were observed using Leica DM6B microscope with Leica DFC 7000 T camera and 63× magnification using oil immersion lens. Mid-log E. coli cells (10^8 cells) expressing AeaABC-TMOF-receptor were incubated with TMOF-FITC (see Section 2.6) in M9 medium (100 μL) overnight at 37 °C. After incubation, the cells were washed 3× in PBS pH 7.2 (as in Section 2.6) and aliquots (10 μL) were spread on a glass slide then covered with a cover slip and a drop of oil was applied to the top of the cover slip, and the cells observed by fluorescence microscopy. Cells without a TMOF-receptor containing an empty plasmid were used as control.

TMOF gut receptor = conditions: cited from earlier work
Description: To characterize the TMOF gut receptor, complementary decapeptides were used on Ae. aegypti gut membranes showing that the binding to the gut membrane is pH and temperature dependent. […] The specific TMOF receptor binding sites on female mosquito gut increased after the blood meal and they were visualized by immunochemistry staining. […] Our earlier studies also characterized a low affinity receptor [25] whereas in this study the affinity chromatography and SDS PAGE procedure that we used aimed to purify a high affinity TMOF receptor. It is possible that a second low affi ...

Q: For O=[N+]([O-])c1ccc(O)c([N+](=O)[O-])c1 [DNP, 2,4-dinirophenol], which “effect on transport of AeaTMOF-FITC into E. coli cells (in words)” value (“effect on transport” for short) (AeaABC-TMOF receptor [1]) is on record?
A: did not stop the transport

Q: What does the source list for O=[As]([O-])([O-])O.[Na+].[Na+] [NaArsenate, sodium arsenate]?
A: inhibition of transport of AeaTMOF-FITC into E. coli cells (AeaABC-TMOF receptor [1]): 58%; effect on transport of AeaTMOF-FITC into E. coli cells (in words) (AeaABC-TMOF receptor [1]): inhibited

Q: For [N-]=[N+]=[N-].[Na+] [NaAzide, sodium azide], which “inhibition of transport of AeaTMOF-FITC into E. coli cells” value (AeaABC-TMOF receptor [1]) is on record?
A: 43%

Q: And the “effect on transport” value (AeaABC-TMOF receptor [1])?
A: inhibited

Q: Which “effect on transport” value (AeaABC-TMOF receptor [1]) does the source give for CC(C)[C@@H]1NC(=O)[C@H](C)OC(=O)[C@@H](C(C)C)NC(=O)[C@@H](C(C)C)OC(=O)[C@H](C(C)C)NC(=O)[C@H](C)OC(=O)[C@@H](C(C)C)NC(=O)[C@@H](C(C)C)OC(=O)[C@H](C(C)C)NC(=O)[C@H](C)OC(=O)[C@@H](C(C)C)NC(=O)[C@@H](C(C)C)OC1=O [Valinomycin] here?
A: did not stop the transport

Q: Which “fold more TMOF-FITC bound by receptor-expressing cells than by E. coli SbmA+” value (AeaABC-TMOF receptor [2]; 2 h, 37 °C, M9 medium, versus E. coli SbmA+ with empty plasmid, p = 0.0034) does the source give for H-YDPAPPPPPPK(FITC)K-OH [TMOF-FITC] here?
A: 3.7 fold

Q: And the “fold more TMOF-FITC bound by receptor-expressing cells than by E. coli SbmA−” value (AeaABC-TMOF receptor [2]; 2 h, 37 °C, M9 medium, versus E. coli SbmA− with empty plasmid, p = 0.0018)?
A: 7.8 fold

Q: And the Kd (AeaABC-TMOF receptor [2]; 2 h)?
A: 114 ± 18 nM

Q: What about the Bmax (AeaABC-TMOF receptor [2]; per equal number of E. coli cells, n = 5) of the same compound?
A: 28.7 ± 1.8 pmol/OD600

Q: What about the “affinity constant Kassoc” value (AeaABC-TMOF receptor [2]) of the same compound?
A: 8.8e+06 M⁻¹

Q: What about the nonspecific binding (E. coli SbmA− cells [3]; E. coli SbmA− cells with empty pTAC-MAT-2 plasmid, not expressing the receptor (bacterial cell wall)) of the same compound?
A: 13%

Q: What about the AeaTMOF-FITC bound (E. coli SbmA− cells [3]; E. coli SbmA− cells, 8 × 10^8 cells, 2 h, 37 °C, M9 medium, mean of three) of the same compound?
A: 4 pmol

Q: What about the AeaTMOF-FITC bound (E. coli SbmA+ cells) of the same compound?
A: 8.4 pmol

Q: What about the “fluorescence of cells / import (in words)” value (AeaABC-TMOF receptor [4]) of the same compound?
A: imports it into the bacterial cells

Q: What about the “fluorescence of cells / import (in words)” value (AeaABC-TMOF receptor [4]; listed as AeaTMOF-FITC) of the same compound?
A: highly fluoresce

Q: And the “fluorescence of cells (in words)” value (AeaABC-TMOF receptor [4]; short time incubation (2 h), cells expressing receptor)?
A: did not fluoresce

Q: And the “fluorescence of cells (in words)” value (E. coli SbmA− cells [5])?
A: did not fluoresce

Q: And the “fluorescence of cells (in words)” value (E. coli SbmA− cells [5]; listed as AeaTMOF-FITC)?
A: barely fluoresce

Q: For YDPAPPPPPP [TMOF], which Kd (AeaABC-TMOF receptor [2]; 2 h) is on record?
A: 114 ± 18 nM

Q: And the Bmax (AeaABC-TMOF receptor [2])?
A: 28.7 ± 1.8 pmol

Q: What about the “affinity constant Kassoc” value (AeaABC-TMOF receptor [2]) of the same compound?
A: 8.8e+06 M⁻¹

Q: And the Bmax (TMOF gut receptor; gut membrane preparations)?
A: 0.1 pmol/gut

Q: And the Kassoc (TMOF gut receptor; gut membrane preparations)?
A: 2.2e+06 M⁻¹

Q: What about the Kd (TMOF gut receptor; low affinity binding site, gut membranes, complementary decapeptides, read-out: Kd2) of the same compound?
A: 4430 nM
